Reference: ChEMBL document CHEMBL3390848, “Affinity selection and sequence-activity relationships of HIV-1 membrane fusion inhibitors directed at the drug-resistant variants” (Medchemcomm, 2010)
Residues, ends and D or L forms follow the SMILES beside them.

Assays:
[1] = system: Human immunodeficiency virus 1; assay: Antiviral activity against HIV1 NL4-3 harboring gp41 D36G mutant infected in human HeLa cells expressing CD4-LTR-beta-gal assessed as inhibition of viral replication after 48 hrs by MAGI assay; format: functional, organism-based
[2] = system: Human immunodeficiency virus 1; assay: Binding affinity to HIV1 His-tagged N-terminal heptad repeat of envelope glycoprotein gp41 assessed as recovery of N54-drug complex after 2 hrs by LC-MS analysis; parameters: concentration or dose not given beside the values
[3] = system: Human immunodeficiency virus 1; assay: Thermal stability of HIV1 envelope glycoprotein gp41 His-tagged N-terminal heptad repeat N54-drug complex assessed as thermal unfolding transition state by measuring molar ellipticity at 4 to 90 degC by circular dichroic spectra analysis

Structure (SMILES)	EC50 [1] [nM]	Activity [2] [%]	Tm [3] [°C]
CC[C@H](C)[C@H](NC(=O)[C@H](CC(C)C)NC(=O)[C@H](CCC(=O)O)NC(=O)[C@H](CCC(=O)O)NC(=O)[C@@H](NC(=O)[C@H](CC(C)C)NC(=O)[C@H](CO)NC(=O)[C@@H](NC(=O)[C@H](Cc1ccc(O)cc1)NC(C)=O)[C@@H](C)O)[C@@H](C)CC)C(=O)N[C@@H](CCCCN)C(=O)N[C@@H](CCCCN)C(=O)N[C@@H](CO)C(=O)N[C@@H](CCC(=O)O)C(=O)N[C@@H](CCC(=O)O)C(=O)N[C@@H](Cc1c[nH]c2ccccc12)C(=O)N[C@@H](CCC(N)=O)C(=O)N[C@@H](CCCCN)C(=O)N[C@@H](CCCCN)C(=O)N[C@@H](CC(N)=O)C(=O)N[C@@H](CCC(=O)O)C(=O)N[C@@H](CCC(=O)O)C(=O)N[C@@H](CCC(=O)O)C(=O)N[C@@H](CC(C)C)C(=O)N[C@@H](CCCCN)C(=O)N[C@@H](CCCCN)C(=O)N[C@@H](CC(C)C)C(=O)N[C@@H](CCC(=O)O)C(=O)N[C@@H](CCC(=O)O)C(=O)N[C@@H](Cc1c[nH]c2ccccc12)C(=O)N[C@@H](C)C(=O)N[C@@H](CCCCN)C(=O)N[C@@H](CCCCN)C(=O)N[C@@H](Cc1c[nH]c2ccccc12)C(=O)N[C@@H](CC(N)=O)C(=O)N[C@@H](Cc1c[nH]c2ccccc12)C(=O)N[C@@H](Cc1ccccc1)C(N)=O (Ac-YTSLIEELIKKSEEWQKKNEEELKKLEEWAKKWNWF-NH2)	2.5	8.1	68.8
CC[C@H](C)[C@H](NC(=O)[C@H](CC(C)C)NC(=O)[C@H](CCC(=O)O)NC(=O)[C@H](CCC(=O)O)NC(=O)[C@@H](NC(=O)[C@H](CC(C)C)NC(=O)[C@H](CO)NC(=O)[C@@H](NC(=O)[C@H](Cc1ccc(O)cc1)NC(C)=O)[C@@H](C)O)[C@@H](C)CC)C(=O)N[C@@H](CCCCN)C(=O)N[C@@H](CCCCN)C(=O)N[C@@H](CCCNC(=N)N)C(=O)N[C@@H](CCC(=O)O)C(=O)N[C@@H](CCC(=O)O)C(=O)N[C@@H](CCC(N)=O)C(=O)N[C@@H](CCC(N)=O)C(=O)N[C@@H](CCCCN)C(=O)N[C@@H](CCCCN)C(=O)N[C@@H](CC(N)=O)C(=O)N[C@@H](CCC(=O)O)C(=O)N[C@@H](CCC(=O)O)C(=O)N[C@@H](CCC(=O)O)C(=O)N[C@@H](CC(C)C)C(=O)N[C@@H](CCCCN)C(=O)N[C@@H](CCCCN)C(=O)N[C@@H](CC(C)C)C(=O)N[C@@H](CCC(=O)O)C(=O)N[C@@H](CCC(=O)O)C(=O)N[C@@H](Cc1c[nH]c2ccccc12)C(=O)N[C@@H](C)C(=O)N[C@@H](CCCCN)C(=O)N[C@@H](CCCCN)C(=O)N[C@@H](Cc1c[nH]c2ccccc12)C(=O)N[C@@H](CC(N)=O)C(=O)N[C@@H](Cc1c[nH]c2ccccc12)C(=O)N[C@@H](Cc1ccccc1)C(=O)O (Ac-YTSLIEELIKKREEQQKKNEEELKKLEEWAKKWNWF-OH)	320	1.5	49.4
CC[C@H](C)[C@H](NC(=O)[C@H](CC(C)C)NC(=O)[C@H](CCC(=O)O)NC(=O)[C@H](CCC(=O)O)NC(=O)[C@@H](NC(=O)[C@H](CC(C)C)NC(=O)[C@H](CO)NC(=O)[C@@H](NC(=O)[C@H](Cc1ccc(O)cc1)NC(C)=O)[C@@H](C)O)[C@@H](C)CC)C(=O)N[C@@H](CCCCN)C(=O)N[C@@H](CCCCN)C(=O)N[C@H](C(=O)N[C@@H](CCC(=O)O)C(=O)N[C@@H](CCC(=O)O)C(=O)N[C@@H](CCC(N)=O)C(=O)N[C@@H](CCC(N)=O)C(=O)N[C@@H](CCCCN)C(=O)N[C@@H](CCCCN)C(=O)N[C@@H](CC(N)=O)C(=O)N[C@@H](CCC(=O)O)C(=O)N[C@@H](CCC(=O)O)C(=O)N[C@@H](CCC(=O)O)C(=O)N[C@@H](CC(C)C)C(=O)N[C@@H](CCCCN)C(=O)N[C@@H](CCCCN)C(=O)N[C@@H](CC(C)C)C(=O)N[C@@H](CCC(=O)O)C(=O)N[C@@H](CCC(=O)O)C(=O)N[C@@H](Cc1c[nH]c2ccccc12)C(=O)N[C@@H](C)C(=O)N[C@@H](CCCCN)C(=O)N[C@@H](CCCCN)C(=O)N[C@@H](Cc1c[nH]c2ccccc12)C(=O)N[C@@H](CC(N)=O)C(=O)N[C@@H](Cc1c[nH]c2ccccc12)C(=O)N[C@@H](Cc1ccccc1)C(N)=O)[C@@H](C)CC (Ac-YTSLIEELIKKIEEQQKKNEEELKKLEEWAKKWNWF-NH2)	0.4	10.4	79.7
CC[C@H](C)[C@H](NC(=O)[C@H](CC(C)C)NC(=O)[C@H](CCC(=O)O)NC(=O)[C@H](CCC(=O)O)NC(=O)[C@@H](NC(=O)[C@H](CC(C)C)NC(=O)[C@H](CO)NC(=O)[C@@H](NC(=O)[C@H](Cc1ccc(O)cc1)NC(C)=O)[C@@H](C)O)[C@@H](C)CC)C(=O)N[C@@H](CCCCN)C(=O)N[C@@H](CCCCN)C(=O)N[C@@H](CCC(=O)O)C(=O)N[C@@H](CCC(=O)O)C(=O)N[C@@H](CCC(=O)O)C(=O)N[C@@H](CCC(N)=O)C(=O)N[C@@H](CCC(N)=O)C(=O)N[C@@H](CCCCN)C(=O)N[C@@H](CCCCN)C(=O)N[C@@H](CC(N)=O)C(=O)N[C@@H](CCC(=O)O)C(=O)N[C@@H](CCC(=O)O)C(=O)N[C@@H](CCC(=O)O)C(=O)N[C@@H](CC(C)C)C(=O)N[C@@H](CCCCN)C(=O)N[C@@H](CCCCN)C(=O)N[C@@H](CC(C)C)C(=O)N[C@@H](CCC(=O)O)C(=O)N[C@@H](CCC(=O)O)C(=O)N[C@@H](Cc1c[nH]c2ccccc12)C(=O)N[C@@H](C)C(=O)N[C@@H](CCCCN)C(=O)N[C@@H](CCCCN)C(=O)N[C@@H](Cc1c[nH]c2ccccc12)C(=O)N[C@@H](CC(N)=O)C(=O)N[C@@H](Cc1c[nH]c2ccccc12)C(=O)N[C@@H](Cc1ccccc1)C(N)=O (Ac-YTSLIEELIKKEEEQQKKNEEELKKLEEWAKKWNWF-NH2)	230	2.2	61
CC[C@H](C)[C@H](NC(=O)[C@H](CC(C)C)NC(=O)[C@H](CCC(=O)O)NC(=O)[C@H](CCC(=O)O)NC(=O)[C@@H](NC(=O)[C@H](CC(C)C)NC(=O)[C@H](CO)NC(=O)[C@@H](NC(=O)[C@H](Cc1ccc(O)cc1)NC(C)=O)[C@@H](C)O)[C@@H](C)CC)C(=O)N[C@@H](CCCCN)C(=O)N[C@@H](CCCCN)C(=O)N[C@@H](CO)C(=O)N[C@@H](CCC(=O)O)C(=O)N[C@@H](CCC(=O)O)C(=O)N[C@@H](Cc1ccccc1)C(=O)N[C@@H](CCC(N)=O)C(=O)N[C@@H](CCCCN)C(=O)N[C@@H](CCCCN)C(=O)N[C@@H](CC(N)=O)C(=O)N[C@@H](CCC(=O)O)C(=O)N[C@@H](CCC(=O)O)C(=O)N[C@@H](CCC(=O)O)C(=O)N[C@@H](CC(C)C)C(=O)N[C@@H](CCCCN)C(=O)N[C@@H](CCCCN)C(=O)N[C@@H](CC(C)C)C(=O)N[C@@H](CCC(=O)O)C(=O)N[C@@H](CCC(=O)O)C(=O)N[C@@H](Cc1c[nH]c2ccccc12)C(=O)N[C@@H](C)C(=O)N[C@@H](CCCCN)C(=O)N[C@@H](CCCCN)C(=O)N[C@@H](Cc1c[nH]c2ccccc12)C(=O)N[C@@H](CC(N)=O)C(=O)N[C@@H](Cc1c[nH]c2ccccc12)C(=O)N[C@@H](Cc1ccccc1)C(N)=O (Ac-YTSLIEELIKKSEEFQKKNEEELKKLEEWAKKWNWF-NH2)	2.6	5.3	64
CC[C@H](C)[C@H](NC(=O)[C@H](CC(C)C)NC(=O)[C@H](CCC(=O)O)NC(=O)[C@H](CCC(=O)O)NC(=O)[C@@H](NC(=O)[C@H](CC(C)C)NC(=O)[C@H](CO)NC(=O)[C@@H](NC(=O)[C@H](Cc1ccc(O)cc1)NC(C)=O)[C@@H](C)O)[C@@H](C)CC)C(=O)N[C@@H](CCCCN)C(=O)N[C@@H](CCCCN)C(=O)N[C@@H](CC(=O)O)C(=O)N[C@@H](CCC(=O)O)C(=O)N[C@@H](CCC(=O)O)C(=O)N[C@@H](CCC(N)=O)C(=O)N[C@@H](CCC(N)=O)C(=O)N[C@@H](CCCCN)C(=O)N[C@@H](CCCCN)C(=O)N[C@@H](CC(N)=O)C(=O)N[C@@H](CCC(=O)O)C(=O)N[C@@H](CCC(=O)O)C(=O)N[C@@H](CCC(=O)O)C(=O)N[C@@H](CC(C)C)C(=O)N[C@@H](CCCCN)C(=O)N[C@@H](CCCCN)C(=O)N[C@@H](CC(C)C)C(=O)N[C@@H](CCC(=O)O)C(=O)N[C@@H](CCC(=O)O)C(=O)N[C@@H](Cc1c[nH]c2ccccc12)C(=O)N[C@@H](C)C(=O)N[C@@H](CCCCN)C(=O)N[C@@H](CCCCN)C(=O)N[C@@H](Cc1c[nH]c2ccccc12)C(=O)N[C@@H](CC(N)=O)C(=O)N[C@@H](Cc1c[nH]c2ccccc12)C(=O)N[C@@H](Cc1ccccc1)C(N)=O (Ac-YTSLIEELIKKDEEQQKKNEEELKKLEEWAKKWNWF-NH2)	330	1.5	56.5
CC[C@H](C)[C@H](NC(=O)[C@H](CCC(=O)O)NC(=O)[C@H](CCC(=O)O)NC(=O)[C@H](CO)NC(=O)[C@H](CCCCN)NC(=O)[C@H](CCCCN)NC(=O)[C@@H](NC(=O)[C@H](CC(C)C)NC(=O)[C@H](CCC(=O)O)NC(=O)[C@H](CCC(=O)O)NC(=O)[C@@H](NC(=O)[C@H](CC(C)C)NC(=O)[C@H](CO)NC(=O)[C@@H](NC(=O)[C@H](Cc1ccc(O)cc1)NC(C)=O)[C@@H](C)O)[C@@H](C)CC)[C@@H](C)CC)C(=O)N[C@@H](CCC(N)=O)C(=O)N[C@@H](CCCCN)C(=O)N[C@@H](CCCCN)C(=O)N[C@@H](CC(N)=O)C(=O)N[C@@H](CCC(=O)O)C(=O)N[C@@H](CCC(=O)O)C(=O)N[C@@H](CCC(=O)O)C(=O)N[C@@H](CC(C)C)C(=O)N[C@@H](CCCCN)C(=O)N[C@@H](CCCCN)C(=O)N[C@@H](CC(C)C)C(=O)N[C@@H](CCC(=O)O)C(=O)N[C@@H](CCC(=O)O)C(=O)N[C@@H](Cc1c[nH]c2ccccc12)C(=O)N[C@@H](C)C(=O)N[C@@H](CCCCN)C(=O)N[C@@H](CCCCN)C(=O)N[C@@H](Cc1c[nH]c2ccccc12)C(=O)N[C@@H](CC(N)=O)C(=O)N[C@@H](Cc1c[nH]c2ccccc12)C(=O)N[C@@H](Cc1ccccc1)C(N)=O (Ac-YTSLIEELIKKSEEIQKKNEEELKKLEEWAKKWNWF-NH2)	0.8	10.4	74
